From patent US20220380309A1, “CHOLINE METABOLISM INHIBITORS” (President and Fellows of Harvard College, priority 2018, published 2022)
Like-named read-outs stand apart in the source and are kept apart here. One block for each compound: values may come before it.

Key:
E. coli MS 200-1 = assay: Inhibition of TMA production in whole cells (LC-MS/MS assay for choline TMA-lyase activity, d9-TMA from d9-choline); assay type: cell-based
CutC = CutC (Oleidesulfovibrio alaskensis, UniProt Q30W70); assay: biochemical; assay type: biochemical
[1] = Escherichia coli, MS2001, Table 3, TMA generation, 1 mM choline-d9, anaerobic, 3.5 h, 37° C., read-out: EC50 against E. coli MS200-1
[2] = Escherichia coli, MS2001, Table 2, inhibition of TMA-d9 production, 1 mM choline-d9, anaerobic, 3.5 hrs, 37° C., read-out: EC50
[3] = Escherichia coli, MS2001, 3.5 h
[4] = Escherichia coli, MS2001, 3.5 h, read-out: EC50 against E. coli MS200-1
[5] = Table 2, inhibition of TMA-d9 production, 1 mM choline-d9, anaerobic, 3.5 hrs, 37° C., read-out: EC50

Chain of CutC (Q30W70 whole entry): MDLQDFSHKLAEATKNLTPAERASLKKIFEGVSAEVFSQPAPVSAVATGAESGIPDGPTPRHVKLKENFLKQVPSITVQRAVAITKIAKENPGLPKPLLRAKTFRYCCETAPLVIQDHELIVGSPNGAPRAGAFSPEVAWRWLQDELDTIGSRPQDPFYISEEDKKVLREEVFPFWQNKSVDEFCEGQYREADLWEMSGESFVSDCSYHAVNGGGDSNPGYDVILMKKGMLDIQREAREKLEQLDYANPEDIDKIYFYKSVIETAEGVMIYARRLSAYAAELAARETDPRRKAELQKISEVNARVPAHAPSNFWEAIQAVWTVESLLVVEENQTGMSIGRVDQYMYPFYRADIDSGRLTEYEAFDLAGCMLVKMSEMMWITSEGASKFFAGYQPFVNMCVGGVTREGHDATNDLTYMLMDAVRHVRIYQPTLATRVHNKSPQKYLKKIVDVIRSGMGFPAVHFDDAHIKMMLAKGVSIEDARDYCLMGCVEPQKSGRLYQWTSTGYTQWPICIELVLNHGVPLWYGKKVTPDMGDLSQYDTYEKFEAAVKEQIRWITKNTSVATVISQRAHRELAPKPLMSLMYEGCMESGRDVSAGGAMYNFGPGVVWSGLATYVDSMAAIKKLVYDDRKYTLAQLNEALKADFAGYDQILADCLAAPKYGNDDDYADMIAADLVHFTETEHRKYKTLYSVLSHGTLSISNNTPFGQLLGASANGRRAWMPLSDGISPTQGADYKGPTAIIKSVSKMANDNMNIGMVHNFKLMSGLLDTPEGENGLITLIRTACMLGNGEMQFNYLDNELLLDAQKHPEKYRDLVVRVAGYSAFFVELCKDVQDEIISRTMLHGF

EC50 (E. coli MS 200-1; [1]): 197 µM
SMILES: OC1C=CCN(Cc2ccco2)C1 (centres unmarked)

SMILES: COC(=O)C1CCCC1N1CC=CC(O)C1 (centres unmarked)
inhibition at 1000 µM (E. coli MS 200-1; Escherichia coli, MS2001, Table 3, TMA generation of E. coli MS200-1, 1 mM compound): 62%

SMILES: CN1CCCC1CO (centres unmarked) [Compound 19]
EC50 (E. coli MS 200-1; [2]): 250 µM

SMILES: OC1C=CCN(CCc2ccccc2)C1 (centres unmarked)
EC50 (E. coli MS 200-1; [1]): 294 µM

SMILES: O[C@H]1C=CCN(C2CCC2)C1
EC50 (E. coli MS 200-1; [1]): 116 µM

SMILES: CC1=CC(O)CN(C)C1 (centres unmarked) [drawing 117]
EC50 (E. coli MS 200-1; [1]): 923 µM

SMILES: CC1CCCC1N1CC=CC(O)C1 (centres unmarked) [Compound 5]
EC50 (E. coli MS 200-1; [3]): 15 µM

SMILES: O[C@H]1C=CCCC1
EC50 (E. coli MS 200-1; [4]): 482 µM

SMILES: CC1CCCCC1N1CC=CC(O)C1 (centres unmarked) [drawing 153]
EC50 (E. coli MS 200-1; [1]): 2 µM

EC50 (E. coli MS 200-1; [1]): 185 µM
SMILES: CN1CCC[C@H]1CO [drawing 171]

EC50 (E. coli MS 200-1; [5]): 9500 µM
SMILES: CN1CCCC(=O)C1 [Compound 16]

SMILES: OC1C=CCN(CC2CCCCC2)C1 (centres unmarked) [drawing 123]
EC50 (E. coli MS 200-1; [1]): 91 µM

SMILES: CN1CCC(O)C1 (centres unmarked) [drawing 176]
IC50 (CutC; read-out: IC50 CutC): 844 µM

EC50 (E. coli MS 200-1; [1]): 151 µM
SMILES: O[C@@H]1C=CCN(CC2CC2)C1

EC50 (E. coli MS 200-1; [1]): 3800 µM
SMILES: CC1=CCCCC1O (centres unmarked)

SMILES: OC1C=CCN(CC2CC2)C1 (centres unmarked) [drawing 188]
IC50 (CutC): 76 µM

EC50 (E. coli MS 200-1; [1]): 256 µM
SMILES: OC1C=CCN(Cc2ccoc2)C1 (centres unmarked)

EC50 (E. coli MS 200-1; Table 3, TMA generation, 1 mM choline-d9, anaerobic, 3.5 h, 37° C., read-out: EC50 against E. coli MS200-1): 30 µM
SMILES: [2H]C1(O)C=CCN(C)C1 (centres unmarked)

EC50 (E. coli MS 200-1; [2]): 2040 µM
SMILES: CN1CCC[C@@H]1CO [Compound 21]

SMILES: CC1CCCCC1N1CC=C[C@H](O)C1 (some centres unmarked) [drawing 154]
EC50 (E. coli MS 200-1; [1]): 12 µM

EC50 (E. coli MS 200-1; [1]): 383 µM
SMILES: COc1ccc(CN2CC=C[C@H](O)C2)cc1

SMILES: OC1C=CCN(C2CCCCC2)C1 (centres unmarked) [Compound 3]
EC50 (E. coli MS 200-1; [2]): 20 µM

SMILES: CC(C)N1CC=CC(O)C1 (centres unmarked) [drawing 191]
IC50 (CutC): 110 µM

SMILES: C=CC(O)CN(C)C (centres unmarked) [drawing 174]
EC50 (E. coli MS 200-1; [1]): 70 µM

SMILES: OC1C=CCN(Cc2ccccn2)C1 (centres unmarked)
inhibition at 3000 µM (E. coli MS 200-1; Escherichia coli, MS2001, Table 3, TMA generation of E. coli MS200-1, 3 mM compound): 96%

SMILES: CC1CCCC1N1CC=C[C@@H](O)C1 (some centres unmarked) [drawing 145]
EC50 (E. coli MS 200-1; [4]): 164 µM

SMILES: CN1CCC(O)CC1 [Compound 15]
EC50 (E. coli MS 200-1; [2]): 4400 µM

SMILES: O[C@@H]1C=CCN(C2CCC2)C1
EC50 (E. coli MS 200-1; [1]): 193 µM

EC50 (E. coli MS 200-1; [5]): 15 µM
SMILES: CN1CC=C[C@@H](O)C1 [Compound 13]

EC50 (E. coli MS 200-1; [1]): 141 µM
SMILES: COc1ccc(CN2CC=C[C@@H](O)C2)cc1

SMILES: C[N+]1(C)CC=CC(O)C1 (centres unmarked) [drawing 114]
EC50 (E. coli MS 200-1; [1]): 8 µM

SMILES: CC1=CC(O)CN(C)C1 (centres unmarked) [drawing 186]
IC50 (CutC; read-out: IC50 CutC): 422 µM

SMILES: CC1CCC(N2CC=CC(O)C2)C1 (centres unmarked)
EC50 (E. coli MS 200-1; [1]): 49 µM

SMILES: C[N+]1(C)CC=CC(O)C1 (centres unmarked) [drawing 185]
IC50 (CutC; read-out: IC50 CutC): 7 µM

SMILES: OC1C=CCN(C2CCCCCC2)C1 (centres unmarked) [drawing 197]
IC50 (CutC): 14 µM

SMILES: OC1C=CCN(C2CCCCC2F)C1 (centres unmarked)
EC50 (E. coli MS 200-1; [1]): 12 µM

SMILES: O[C@@H]1C=CCN(C2CCCCC2)C1 [Compound 7]
EC50 (E. coli MS 200-1; [2]): 108 µM

SMILES: CC1CCCC1N1CC=CC(O)C1 (centres unmarked) [drawing 143]
EC50 (E. coli MS 200-1; [4]): 15 µM

SMILES: O[C@H]1C=CCN(C2CCCC2)C1
EC50 (E. coli MS 200-1; [1]): 41 µM

SMILES: CC1CCCC1N1CC=C[C@H](O)C1 (some centres unmarked) [drawing 194]
inhibition at 10 μM (CutC): No inhibition at 10 μM

SMILES: CN1CCC(O)C1 (centres unmarked) [Compound 14]
EC50 (E. coli MS 200-1; [2]): 6300 µM

EC50 (E. coli MS 200-1; [1]): > 30000 µM
SMILES: C[N+]1(C)CCCC(O)C1 (centres unmarked)

SMILES: OC1C=CCN(CCCl)C1 (centres unmarked)
EC50 (E. coli MS 200-1; [4]): 113 µM

EC50 (E. coli MS 200-1; [2]): 120 µM
SMILES: CN1CCCCC1CN (centres unmarked) [Compound 17]

SMILES: OC1C=CCN(Cc2ccccc2)C1 (centres unmarked) [drawing 124]
EC50 (E. coli MS 200-1; [1]): 367 µM

SMILES: CN1CCCC(O)CC1 (centres unmarked) [Compound 24]
EC50 (E. coli MS 200-1; [3]): 760 µM

SMILES: OC1C=CCN(C2CCCCC2)C1 (centres unmarked) [drawing 196]
IC50 (CutC): 63 µM

SMILES: OC1C=CCN(C2CCC2)C1 (centres unmarked) [Compound 1]
EC50 (E. coli MS 200-1; [2]): 154 µM

SMILES: OC1C=CCOC1 (centres unmarked) [drawing 199]
IC50 (CutC; read-out: IC50 CutC): 2890 µM

SMILES: CC1CCCCC1N1CC=CC(O)C1 (centres unmarked) [Compound 6]
EC50 (E. coli MS 200-1; [2]): 2 µM

EC50 (E. coli MS 200-1; [5]): 10 µM
SMILES: CN1CC=CC(O)C1 (centres unmarked) [Compound 11]

EC50 (E. coli MS 200-1; [1]): 304 µM
SMILES: COc1ccc(CN2CC=CC(O)C2)cc1 (centres unmarked)

SMILES: CC1CCCC(N2CC=CC(O)C2)C1 (centres unmarked)
EC50 (E. coli MS 200-1; [1]): 17 µM

EC50 (E. coli MS 200-1; [1]): > 30000 µM
SMILES: CN1CCC(=O)C1

SMILES: OC1C=CCN(C2CCC2)C1 (centres unmarked) [drawing 192]
IC50 (CutC): 203 µM

SMILES: O[C@@H]1C=CCCC1
EC50 (E. coli MS 200-1; [4]): 404 µM

EC50 (E. coli MS 200-1; [1]): 14100 µM
SMILES: CC1=CC(O)CCC1 (centres unmarked)

SMILES: O[C@H]1C=CCN(C2CCCCC2)C1 [Compound 8]
EC50 (E. coli MS 200-1; [2]): 14 µM

SMILES: C[N+]1(C)CC=CC(O)C1 (centres unmarked) [Compound 25]
EC50 (E. coli MS 200-1; [2]): 10 µM
